The values that follow come from patent publication US11821001B2, “Cell culture medium for eukaryotic cells” (Regeneron Pharmaceuticals, Inc., priority 2019, dated 2023).

The subject of the assay is titer of VEGFR binding protein 1. The assay is described as follows: Correlation and regression of component concentration against protein titer of VEGFR binding protein 1. It is filed as cell-based. The note with it: regression line; for protein titer versus concentration of the component in the cell culture medium: N=70, extrapolated estimation from soy hydrolysate data, FIG. 3 / FIG. 5; for protein titer versus concentration of the component in the soy hydrolysate added to the cell culture medium: N=70, enriched medium (soy hydrolysate), FIG. 2 / FIG. 4. As to the method: The impact of 5-methythioadenosine on production of a recombinant protein (VEGFR binding protein 1) was studied by investigating the protein titer (g/L) at different concentrations of 5-methythioadenosine present in the cell culture medium.
An enriched medium (soy hydrolysate) comprising 5-methythioadenosine was added to the cell culture medium.
Based on the correlation data obtained from studying the effect of 5-methythioadenosine concentrations in the enriched medium (soy hydrolysate) supplemented to the cell culture medium (Example 2, FIG. 2), an estimation as to the optimum concentration of 5-MTA in a cell culture was made.
The impact of nicotinamide on a recombinant protein (VEGFR binding protein 1) titer was also studied by investigating the protein titer (g/L) at different concentrations of nicotinamide present in the cell culture medium.
An enriched medium (soy hydrolysate) comprising nicotinamide was added to the cell culture medium at varying concentrations.
Based on the correlation data obtained from studying the effect of nicotinamide concentration in enriched medium (soy hydrolysate) supplemented to the cell culture medium (Example 4, FIG. 4), an estimation as to the optimum concentration of nicotinamide in a cell culture was made.

As for `CSC[C@H]1O[C@@H](n2cnc3c(N)ncnc32)[C@H](O)[C@@H]1O` [5-methylthioadenosine (MTA), 5-Deoxy-5′-methylthioadenosine], the “protein titer versus concentration of the component in the cell culture medium” value is “titer can vary linearly” and the “protein titer versus concentration of the component in the soy hydrolysate added to the cell culture medium” value is listed as “titer varied linearly”.

With `NC(=O)c1cccnc1` [Nicotinamide, 3-Pyridinecarboxamide], the “protein titer versus concentration of the component in the cell culture medium” value is listed as “titer can vary linearly” and the “protein titer versus concentration of the component in the soy hydrolysate added to the cell culture medium” value was “titer varied linearly”.
